# According to US20250296971A1, “GASTRIC INHIBITORY PEPTIDE RECEPTOR LIGANDS” (priority 2021, published 2025):
# *1 amine or outer side, *2 acyl side, *3 side chain or, on linkers, in order; H or OH if unused. Where a SMILES comes first, the peptide text is derived from it. Bridges are numbered along the chain shown (N, C = ends). [ ]: non-standard residue; d: D form. The star is where a group is joined. X17 = O=C(CC[C@H](NC(=O)CN1CCN2CCN3CCN(CC1)CC(=O)[O][Lu]([O]C(=O)C2)[O]C(=O)C3)C(=O)*)NC[C@H](O)[C@@H](O)[C@H](O)[C@H](O)CO; X20 = O=C(CC[C@H](NC(=O)CN1CCN2CCN3CCN(CC1)CC(=O)[O][Ga]([O]C(=O)C2)[O]C(=O)C3)C(=O)*)NC[C@H](O)[C@@H](O)[C@H](O)[C@H](O)CO; X11 = O=C(CN1CCN2CCN3CCN(CC1)CC(=O)[O][In]([O]C(=O)C2)[O]C(=O)C3)NCCCOCCOCCOCCCN*; DOTA(Lu) = O=C1CN2CCN3CCN(CC(=O)*)CCN(CC2)CC(=O)[O][Lu]([O]1)[O]C(=O)C3; X3 = O=C(O)CN1CCN(CC(=O)O)CCN(CC(=O)NCCCOCCOCCOCCCN*)CCN(CC(=O)O)CC1; NH(1-deoxy-D-glucityl) = OC[C@@H](O)[C@@H](O)[C@H](O)[C@@H](O)CN*; Trp(5-Cl) = N[C@@H](Cc1c[nH]c2ccc(Cl)cc12)C(=O)O; Pyridine(2,6-diCH2) = c1cc(C[*:1])nc(C[*:2])c1; Pro(4R-NH2) = N[C@H]1CN[C@H](C(=O)O)C1; X23 = O=C(c1cccc(CSCCN[*:1])c1)[*:2]; mXylylene = c1cc(C[*:1])cc(C[*:2])c1; Glutaryl = O=C(CCCC(=O)[*:2])[*:1]; X7 = c1cc(CSCCN[*:2])cc(C[*:1])c1; Hyp = O=C(O)[C@@H]1C[C@@H](O)CN1; X1 = O=C(CN1CCC(N[*:1])CC1)[*:2]; Suc = O=C(CCC(=O)[*:2])[*:1]; Api = NC1(C(=O)O)CCNCC1; Thp = NC1(C(=O)O)CCOCC1; Dap = NC[C@H](N)C(=O)O; Aib = CC(C)(N)C(=O)O; Sar = CNCC(=O)O
# Target: T1, GIPR (CHO-K1-hGIPR cells) (Homo sapiens, UniProt P48546)
# T1 construct: host or cells: CHO-K1
# T1 sequence (P48546 22-466): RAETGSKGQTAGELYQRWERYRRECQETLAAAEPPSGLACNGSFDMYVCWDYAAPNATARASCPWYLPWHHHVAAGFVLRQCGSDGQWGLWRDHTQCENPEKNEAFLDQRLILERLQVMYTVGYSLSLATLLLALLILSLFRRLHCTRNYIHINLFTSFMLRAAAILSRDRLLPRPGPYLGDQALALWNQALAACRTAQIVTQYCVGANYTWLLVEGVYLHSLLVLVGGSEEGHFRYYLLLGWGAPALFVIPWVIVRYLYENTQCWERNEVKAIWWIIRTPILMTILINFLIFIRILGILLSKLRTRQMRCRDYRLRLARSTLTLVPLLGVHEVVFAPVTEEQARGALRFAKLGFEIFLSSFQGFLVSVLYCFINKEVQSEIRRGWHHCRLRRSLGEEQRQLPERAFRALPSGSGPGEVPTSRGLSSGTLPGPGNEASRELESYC
# Experiment: FACS binding assay
# Conditions: competition with 20 nM GIP-057, 4° C. for 1 hour, read-out: pIC50 Category (converted)
# Experimental: In order to determine binding of compounds according to the present invention to GIPR-expressing cells, a FACS binding assay was established.
# CHO-K1-hGIPR cells (GenScript Biotech, #M00486) were cultured in Ham's F12 medium (Sigma-Aldrich, #N4888) including 10% fetal calf serum (FCS), 2 mM L-glutamine, 100 U/mL penicillin, 100 μg/mL streptomycin, 200 μg/mL Zeocin and 100 μg/mL HygromycinB. Cells were detached with Accutase (Biolegend, #BLD-423201) and washed in FACS buffer (PBS including 1% FCS). Cells were diluted in FACS buffer to a final concentration of 500.000 cells per mL. 200 μL of the cell suspension were transferred to a u-shaped non-binding 96-well plate (Greiner) and cells were washed in ice-cold FACS buffer.
# Cells were washed twice in FACS buffer. An additional incubation step with 1 μg/mL APC-Streptavidin (Miltenyi; #130-106-791) in 50 μL FACS buffer for 30 min on ice was performed followed by two washes with FACS buffer.
# Cells were analyzed in an Attune NxT flow cytometer. Median fluorescence intensities (MFI) of the APC/Cy5-channel were calculated by Attune NxT software. MFI values were plotted against peptide concentration and four parameter logistic (4PL) curve fitting and EC50/pEC50 or IC50/pIC50 calculations were performed using ActivityBase software.
row,SMILES,IC50 [nM]
1,"CC[C@H](C)[C@@H]1NC(=O)[C@H](CC(C)C)NC(=O)C(C)(C)NC(=O)[C@@H](NC(=O)[C@@H](CC(C)C)NC(=O)[C@H](CCC(=O)O)NC(=O)[C@@H]2CCCN2C(=O)[C@H](Cc2c[nH]c3ccc(Cl)cc23)NC(=O)[C@H](Cc2c[nH]c3ccccc23)NC(=O)[C@H](CC(=O)O)NC(=O)CCC(=O)NCCCOCCOCCOCCCNC(=O)CN2CCN(CC(=O)O)CCN(CC(=O)O)CCN(CC(=O)O)CC2)CNC(=O)c2cccc(c2)CSCCNC1=O [GIP-358, DOTA-Ttds-Asp-Trp-5Clw-Pro-Glu-leu-[Dap(3MeBz)-Aib-Leu-Ile-AET]] ({X3-Suc}-DW[Trp(5-Cl)]PE[dL][Dap][Aib]LI[X23]; lactam 7-C)",< 10
2,CC[C@H](C)[C@@H]1NC(=O)[C@H](CC(C)C)NC(=O)[C@H](C)NC(=O)[C@@H](NC(=O)[C@H](CC(C)C)NC(=O)[C@H](CCC(=O)O)NC(=O)[C@@H]2CCCN2C(=O)[C@H](C)NC(=O)[C@H](Cc2c[nH]c3ccccc23)NC(=O)[C@H](CC(=O)O)NC(=O)[C@H](Cc2ccc(O)cc2)NC(=O)[C@@H](N)CCSC)CSCc2cccc(c2)CSC[C@@H](C(N)=O)NC1=O [GIP-334] (H-MYDWAPELCALIC-NH2; linker 9-13 via mXylylene),> 1000
3,CC[C@H](C)[C@@H]1NC(=O)[C@H](CC(C)C)NC(=O)[C@H](C)NC(=O)[C@@H](NC(=O)[C@H](CC(C)C)NC(=O)[C@H](CCC(=O)O)NC(=O)[C@@H]2CCCN2C(=O)[C@H](Cc2c[nH]c3ccccc23)NC(=O)[C@H](Cc2c[nH]c3ccccc23)NC(=O)[C@H](C)NC(=O)[C@H](Cc2ccc(O)cc2)NC(=O)[C@@H](N)CCSC)CSCc2cccc(c2)CSC[C@@H](C(N)=O)NC1=O [GIP-332] (H-MYAWWPELCALIC-NH2; linker 9-13 via mXylylene),> 1000
4,"CC[C@H](C)[C@@H]1NC(=O)[C@H](CC(C)C)NC(=O)[C@H](C)NC(=O)[C@@H](NC(=O)[C@H](CC(C)C)NC(=O)[C@H](CCC(=O)O)NC(=O)[C@@H]2CCCN2C(=O)[C@H](Cc2c[nH]c3ccccc23)NC(=O)[C@H](Cc2c[nH]c3ccccc23)NC(C)=O)CSCc2cccc(c2)CSC[C@@H](C(N)=O)NC1=O [GIP-324, Ac-Trp-Trp-Pro-Glu-Leu-[Cys(3MeBn)-Ala-Leu-Ile-Cys]-NH2] (Ac-WWPELCALIC-NH2; linker 6-10 via mXylylene)",> 1000
5,CC[C@H](C)[C@@H]1NC(=O)[C@H](C)NC(=O)[C@H](C)NC(=O)[C@@H](NC(=O)[C@H](CC(C)C)NC(=O)[C@H](CCC(=O)O)NC(=O)[C@@H]2CCCN2C(=O)[C@H](Cc2c[nH]c3ccccc23)NC(=O)[C@H](Cc2c[nH]c3ccccc23)NC(=O)[C@H](CC(=O)O)NC(=O)[C@H](Cc2ccc(O)cc2)NC(=O)[C@@H](N)CCSC)CSCc2cccc(c2)CSC[C@@H](C(N)=O)NC1=O [GIP-312] (H-MYDWWPELCAAIC-NH2; linker 9-13 via mXylylene),100 to 794
6,"CC[C@H](C)[C@@H]1NC(=O)[C@H](CC(C)C)NC(=O)[C@@H](C)NC(=O)[C@@H](NC(=O)[C@H](CC(C)C)NC(=O)[C@H](CCC(=O)O)NC(=O)[C@@H]2CCCN2C(=O)[C@H](Cc2c[nH]c3ccccc23)NC(=O)[C@H](Cc2c[nH]c3ccccc23)NC(=O)[C@H](CC(=O)O)NC(=O)CCC(=O)NCCCOCCOCCOCCCNC(=O)CN2CCN(CC(=O)O)CCN(CC(=O)O)CCN(CC(=O)O)CC2)CSCc2cccc(c2)CSC[C@@H](C(N)=O)NC1=O [GIP-271, DOTA-Ttds-asp-Trp-Trp-Pro-Glu-Leu-[Cys(3MeBn)-ala-Leu-Ile-Cys]-NH2] ({X3-Suc}-DWWPELC[dA]LIC-NH2; linker 7-11 via mXylylene)",100 to 794

# Same assay, conditions: competition with 20 nM GIP-057, 4° C., 1 hour, read-out: pIC50 Category (converted)
row,SMILES,IC50 [nM]
1,"CC[C@H](C)[C@@H]1NC(=O)[C@H](CC(C)C)NC(=O)[C@H](Cc2c[nH]c3ccccc23)NC(=O)[C@@H](NC(=O)[C@@H](CC(C)C)NC(=O)[C@H](CCC(=O)O)NC(=O)[C@@H]2C[C@@H](O)CN2C(=O)[C@H](Cc2c[nH]c3ccc(Cl)cc23)NC(=O)[C@H](Cc2c[nH]c3ccccc23)NC(=O)[C@H](CC(=O)O)NC(C)=O)CSCc2cccc(n2)CSC[C@@H](C(N)=O)NC1=O [GIP-234, Ac-Asp-Trp-5Clw-Hyp-Glu-leu-[Cys(2Lut)-Trp-Leu-Ile-Cys]-NH2] (Ac-DW[Trp(5-Cl)][Hyp]E[dL]CWLIC-NH2; linker 7-11 via Pyridine(2,6-diCH2))",< 10
2,"CC[C@H](C)[C@@H]1NC(=O)[C@H](CC(C)C)NC(=O)C(C)(C)NC(=O)[C@@H](NC(=O)[C@@H](CC(C)C)NC(=O)[C@H](CCC(=O)O)NC(=O)CN(C)C(=O)[C@H](Cc2c[nH]c3ccc(Cl)cc23)NC(=O)[C@H](Cc2c[nH]c3ccccc23)NC(=O)[C@H](CC(=O)O)NC(=O)CCC(=O)NCCCOCCOCCOCCCNC(=O)CN2CCN3CCN4CCN(CC2)CC(=O)[O][In]([O]C(=O)C3)[O]C(=O)C4)CSCc2cccc(c2)CSCCNC1=O [GIP-152, InDOTA-Ttds-Asp-Trp-5Clw-Nmg-Glu-leu-[Cys(3MeBn)-Aib-Leu-Ile-AET]] ({X11-Suc}-DW[Trp(5-Cl)][Sar]E[dL]C[Aib]LI; linker 7-C via X7)",< 10

# Same assay, conditions: pIC50 Category, competition with 20 nM GIP-057, 4° C., 1 hour
row,SMILES,IC50 [nM]
1,"CC[C@H](C)[C@@H]1NC(=O)[C@H](CC(C)C)NC(=O)C2(CCN(C(=O)[C@H](CCC(=O)NC[C@H](O)[C@@H](O)[C@H](O)[C@H](O)CO)NC(=O)CN3CCN4CCN5CCN(CC3)CC(=O)[O][Ga]([O]C(=O)C4)[O]C(=O)C5)CC2)NC(=O)[C@@H](NC(=O)[C@@H](CC(C)C)NC(=O)[C@H](CCC(=O)O)NC(=O)[C@@H]2C[C@@H](N)CN2C(=O)[C@H](Cc2c[nH]c3ccc(Cl)cc23)NC(=O)[C@H](Cc2c[nH]c3ccccc23)NC(=O)[C@H](CC(=O)O)NC(=O)CN2CCC(NC(=O)CCCC(=O)NC[C@H](O)[C@@H](O)[C@H](O)[C@H](O)CO)CC2)CSCc2cccc(n2)CSC[C@@H](C(=O)NC2CCN(CC(=O)N[C@H](CCC(=O)NC[C@H](O)[C@@H](O)[C@H](O)[C@H](O)CO)C(N)=O)CC2)NC1=O [GIP-059, AGLU-Glutar-APAc-Asp-Trp-5Clw-Tap-Glu-leu-[Cys(2Lut)-Apc(GaDOTA-glu(AGLU))-Leu-Ile-Cys]-APAc-glu(AGLU)-NH2] ({NH(1-deoxy-D-glucityl)-Glutaryl}-[X1]DW[Trp(5-Cl)][Pro(4R-NH2)]E[dL]C[Api](X20)LIC[X1][dE](NH(1-deoxy-D-glucityl))-NH2; linker 8-12 via Pyridine(2,6-diCH2))",< 10
2,"CC[C@H](C)[C@@H]1NC(=O)[C@H](CC(C)C)NC(=O)C2(CCN(C(=O)[C@H](CCC(=O)NC[C@H](O)[C@@H](O)[C@H](O)[C@H](O)CO)NC(=O)CN3CCN4CCN5CCN(CC3)CC(=O)[O][Lu]([O]C(=O)C4)[O]C(=O)C5)CC2)NC(=O)[C@@H](NC(=O)[C@@H](CC(C)C)NC(=O)[C@H](CCC(=O)O)NC(=O)[C@@H]2C[C@@H](N)CN2C(=O)[C@H](Cc2c[nH]c3ccc(Cl)cc23)NC(=O)[C@H](Cc2c[nH]c3ccccc23)NC(=O)[C@H](CC(=O)O)NC(=O)CN2CCC(NC(=O)CCCC(=O)NC[C@H](O)[C@@H](O)[C@H](O)[C@H](O)CO)CC2)CSCc2cccc(n2)CSC[C@@H](C(=O)NC2CCN(CC(=O)N[C@H](CCC(=O)NC[C@H](O)[C@@H](O)[C@H](O)[C@H](O)CO)C(N)=O)CC2)NC1=O [GIP-061, AGLU-Glutar-APAc-Asp-Trp-5Clw-Tap-Glu-leu-[Cys(2Lut)-Apc(LuDOTA-glu(AGLU))-Leu-Ile-Cys]-APAc-glu(AGLU)-NH2] ({NH(1-deoxy-D-glucityl)-Glutaryl}-[X1]DW[Trp(5-Cl)][Pro(4R-NH2)]E[dL]C[Api](X17)LIC[X1][dE](NH(1-deoxy-D-glucityl))-NH2; linker 8-12 via Pyridine(2,6-diCH2))",< 10
3,"CC[C@H](C)[C@@H]1NC(=O)[C@H](CC(C)C)NC(=O)C2(CCOCC2)NC(=O)[C@@H](NC(=O)[C@@H](CC(C)C)NC(=O)[C@H](CCC(=O)O)NC(=O)[C@@H]2C[C@@H](O)CN2C(=O)[C@H](Cc2c[nH]c3ccc(Cl)cc23)NC(=O)[C@H](Cc2c[nH]c3ccccc23)NC(=O)CCC(=O)O)CSCc2cccc(n2)CSC[C@@H](C(=O)NC2CCN(CC(=O)N[C@@H](CCCCNC(=O)CN3CCN4CCN5CCN(CC3)CC(=O)[O][Lu]([O]C(=O)C4)[O]C(=O)C5)C(N)=O)CC2)NC1=O [GIP-170, HO-Succinyl-Trp-5Clw-Hyp-Glu-leu-[Cys(2Lut)-Thp-Leu-Ile-Cys]-APAc-Lys(LuDOTA)-NH2] (Suc-W[Trp(5-Cl)][Hyp]E[dL]C[Thp]LIC[X1]K(DOTA(Lu))-NH2; linker 6-10 via Pyridine(2,6-diCH2))",< 10
